Measurements reported in ChEMBL document CHEMBL4813981, “Synthesis and in vitro antibacterial activity of new aminothiazole-oximepiperidone cephalosporins” (2021).

Tests used:
Assay type in all cases: functional
[1] = tested on: Klebsiella pneumoniae; assay: Antibacterial activity against Carbapenem- resistant Klebsiella pneumoniae KR 15-8 assessed as reduction in bacterial growth
[2] = tested on: Pseudomonas aeruginosa; assay: Antibacterial activity against Carbapenem- sensitive Pseudomonas aeruginosa 17-10 assessed as reduction in bacterial growth
[3] = tested on: Escherichia coli; assay: Antibacterial activity against ESBLs positive Carbapenem-sensitive Escherichia coli 17-3 assessed as reduction in bacterial growth
[4] = tested on: Escherichia coli; assay: Antibacterial activity against ESBLs positive Carbapenem-sensitive Escherichia coli 17-21 assessed as reduction in bacterial growth
[5] = tested on: Pseudomonas aeruginosa; assay: Antibacterial activity against Carbapenem- sensitive Pseudomonas aeruginosa 17-24 assessed as reduction in bacterial growth
[6] = tested on: Klebsiella pneumoniae; assay: Antibacterial activity against ESBLs negative Carbapenem-sensitive Klebsiella pneumoniae 17-20 assessed as reduction in bacterial growth
[7] = tested on: Enterobacter cloacae; assay: Antibacterial activity against Enterobacter cloacae 17-4 assessed as reduction in bacterial growth
[8] = tested on: Acinetobacter baumannii; assay: Antibacterial activity against Carbapenem- resistant Acinetobacter baumannii 17-8 assessed as reduction in bacterial growth
[9] = tested on: Klebsiella aerogenes; assay: Antibacterial activity against Enterobacter aerogenes 17-4 assessed as reduction in bacterial growth
[10] = tested on: Klebsiella aerogenes; assay: Antibacterial activity against Enterobacter aerogenes 17-2 assessed as reduction in bacterial growth
[11] = tested on: Enterobacter cloacae; assay: Antibacterial activity against Enterobacter cloacae 17-7 assessed as reduction in bacterial growth
[12] = tested on: Klebsiella pneumoniae; assay: Antibacterial activity against Carbapenem- sensitive Klebsiella pneumoniae 17-12 overexpressing extended spectrum beta-lactamases assessed as reduction in bacterial growth
[13] = tested on: Pseudomonas aeruginosa; assay: Antibacterial activity against Carbapenem- sensitive Pseudomonas aeruginosa 17-22 assessed as reduction in bacterial growth
[14] = tested on: Klebsiella pneumoniae; assay: Antibacterial activity against Carbapenem- sensitive Klebsiella pneumoniae 17-9 overexpressing extended spectrum beta-lactamases assessed as reduction in bacterial growth
[15] = tested on: Acinetobacter baumannii; assay: Antibacterial activity against Carbapenem- resistant Acinetobacter baumannii 17-12 assessed as reduction in bacterial growth
[16] = tested on: Klebsiella pneumoniae; assay: Antibacterial activity against Carbapenem- sensitive Klebsiella pneumoniae 17-5 overexpressing extended spectrum beta-lactamases assessed as reduction in bacterial growth
[17] = tested on: Klebsiella pneumoniae; assay: Antibacterial activity against Carbapenem- sensitive Klebsiella pneumoniae 17-4 overexpressing extended spectrum beta-lactamases assessed as reduction in bacterial growth
[18] = tested on: Klebsiella aerogenes; assay: Antibacterial activity against Enterobacter aerogenes 17-3 assessed as reduction in bacterial growth
[19] = tested on: Pseudomonas aeruginosa; assay: Antibacterial activity against Carbapenem- resistant Pseudomonas aeruginosa 17-8 assessed as reduction in bacterial growth
[20] = tested on: Escherichia coli; assay: Antibacterial activity against ESBLs positive Carbapenem-sensitive Escherichia coli 17-10 assessed as reduction in bacterial growth
[21] = tested on: Enterobacter cloacae; assay: Antibacterial activity against Enterobacter cloacae 17-5 assessed as reduction in bacterial growth
[22] = tested on: Klebsiella pneumoniae; assay: Antibacterial activity against ESBLs negative Carbapenem-sensitive Klebsiella pneumoniae 17-16 assessed as reduction in bacterial growth
[23] = tested on: Klebsiella pneumoniae; assay: Antibacterial activity against Carbapenem- sensitive Klebsiella pneumoniae 17-3 overexpressing extended spectrum beta-lactamases assessed as reduction in bacterial growth
[24] = tested on: Escherichia coli; assay: Antibacterial activity against ESBLs negative Carbapenem-sensitive Escherichia coli 17-16 assessed as reduction in bacterial growth
[25] = tested on: Klebsiella pneumoniae; assay: Antibacterial activity against Carbapenem- resistant Klebsiella pneumoniae KR 15-11 assessed as reduction in bacterial growth
[26] = tested on: Klebsiella pneumoniae; assay: Antibacterial activity against Carbapenem- resistant Klebsiella pneumoniae KR 15-4 assessed as reduction in bacterial growth
[27] = tested on: Escherichia coli; assay: Antibacterial activity against ESBLs negative Carbapenem-sensitive Escherichia coli 17-9 assessed as reduction in bacterial growth
[28] = tested on: Escherichia coli; assay: Antibacterial activity against ESBLs positive Carbapenem-sensitive Escherichia coli 17-8 assessed as reduction in bacterial growth
[29] = tested on: Pseudomonas aeruginosa; assay: Antibacterial activity against Carbapenem- sensitive Pseudomonas aeruginosa 17-21 assessed as reduction in bacterial growth
[30] = tested on: Acinetobacter baumannii; assay: Antibacterial activity against Acinetobacter baumannii NCTC 13304 assessed as reduction in bacterial growth
[31] = tested on: Klebsiella pneumoniae; assay: Antibacterial activity against Carbapenem- resistant Klebsiella pneumoniae KR 15-7 assessed as reduction in bacterial growth
[32] = tested on: Escherichia coli; assay: Antibacterial activity against Escherichia coli ATCC 25922 assessed as reduction in bacterial growth
[33] = tested on: Klebsiella pneumoniae; assay: Antibacterial activity against Carbapenem- sensitive Klebsiella pneumoniae 17-8 overexpressing extended spectrum beta-lactamases assessed as reduction in bacterial growth
[34] = tested on: Klebsiella aerogenes; assay: Antibacterial activity against Enterobacter aerogenes 15-6 assessed as reduction in bacterial growth
[35] = tested on: Acinetobacter baumannii; assay: Antibacterial activity against Carbapenem- resistant Acinetobacter baumannii 17-6 assessed as reduction in bacterial growth
[36] = tested on: Klebsiella pneumoniae; assay: Antibacterial activity against ESBLs negative Carbapenem-sensitive Klebsiella pneumonia 15-2 assessed as reduction in bacterial growth
[37] = tested on: Escherichia coli; assay: Antibacterial activity against ESBLs positive Carbapenem-sensitive Escherichia coli 17-2 assessed as reduction in bacterial growth
[38] = tested on: Klebsiella pneumoniae; assay: Antibacterial activity against Carbapenem- resistant Klebsiella pneumoniae KR 15-13 assessed as reduction in bacterial growth
[39] = tested on: Pseudomonas aeruginosa; assay: Antibacterial activity against Pseudomonas aeruginosa ATCC 27853 assessed as reduction in bacterial growth
[40] = tested on: Escherichia coli; assay: Antibacterial activity against ESBLs positive Carbapenem-sensitive Escherichia coli 17-12 assessed as reduction in bacterial growth
[41] = tested on: Pseudomonas aeruginosa; assay: Antibacterial activity against Carbapenem- resistant Pseudomonas aeruginosa 17-1 assessed as reduction in bacterial growth
[42] = tested on: Enterobacter cloacae; assay: Antibacterial activity against Enterobacter cloacae 17-1 assessed as reduction in bacterial growth
[43] = tested on: Pseudomonas aeruginosa; assay: Antibacterial activity against Carbapenem- resistant Pseudomonas aeruginosa 17-5 assessed as reduction in bacterial growth
[44] = tested on: Acinetobacter baumannii; assay: Antibacterial activity against Carbapenem- resistant Acinetobacter baumannii 17-11 assessed as reduction in bacterial growth
[45] = tested on: Acinetobacter baumannii; assay: Antibacterial activity against Carbapenem- resistant Acinetobacter baumannii 17-9 assessed as reduction in bacterial growth
[46] = tested on: Klebsiella pneumoniae; assay: Antibacterial activity against Klebsiella pneumoniae ATCC BAA-1705 assessed as reduction in bacterial growth
[47] = tested on: Klebsiella pneumoniae; assay: Antibacterial activity against Carbapenem- resistant Klebsiella pneumoniae KR 15-12 assessed as reduction in bacterial growth
[48] = tested on: Klebsiella aerogenes; assay: Antibacterial activity against Enterobacter aerogenes 17-5 assessed as reduction in bacterial growth
[49] = tested on: Escherichia coli; assay: Antibacterial activity against ESBLs positive Carbapenem-sensitive Escherichia coli 17-18 assessed as reduction in bacterial growth
[50] = tested on: Escherichia coli; assay: Antibacterial activity against ESBLs negative Carbapenem-sensitive Escherichia coli 17-7 assessed as reduction in bacterial growth
[51] = tested on: Klebsiella aerogenes; assay: Antibacterial activity against Enterobacter aerogenes 17-1 assessed as reduction in bacterial growth
[52] = tested on: Enterobacter cloacae; assay: Antibacterial activity against Enterobacter cloacae 17-8 assessed as reduction in bacterial growth
[53] = tested on: Escherichia coli; assay: Antibacterial activity against ESBLs negative Carbapenem-sensitive Escherichia coli 17-1 assessed as reduction in bacterial growth
[54] = tested on: Acinetobacter baumannii; assay: Antibacterial activity against Carbapenem- resistant Acinetobacter baumannii 17-10 assessed as reduction in bacterial growth
[55] = tested on: Escherichia coli; assay: Antibacterial activity against ESBLs positive Carbapenem-sensitive Escherichia coli 17-17 assessed as reduction in bacterial growth

Measured: MIC

Nc1nc(/C(=N/OCc2cc(=O)c(O)cn2O)C(=O)N[C@@H]2C(=O)N3C(C(=O)O)=CCS[C@H]23)cs1
1 µg/mL: [7] | [12] | [13] | [39] | [42]
4 µg/mL: [5] | [20] | [29] | [40]
64 µg/mL: [4] | [10] | [14] | [43] | [46] | [48]
0.06 µg/mL: [6] | [36]
8 µg/mL: [9] | [16] | [49]
16 µg/mL: [28] | [34] | [52]
32 µg/mL: [19] | [21] | [41] | [51] | [53]
0.5 µg/mL: [22] | [27] | [32]
2 µg/mL: [2] | [3] | [18] | [24] | [37] | [50]
> 64 µg/mL: all other assays above
